Reference: patent US11179391B2, “Compound with kinase inhibitory activity and preparation method and use thereof” (priority 2017, dated 2021)

What was measured:
Assay type in all cases: biochemical
CDK4/CycD3 = CDK4/CycD3 (Homo sapiens, UniProt P11802); experiment: Determination of CDK activity (Caliper mobility shift, FAM-P8 peptide): CDK4; details: CDK4/CycD3; read-out: CDK4 enzymatic inhibitory activity (IC50)
Description: (§1) In vitro, CDK (CDK4, CDK6, CDK1, CDK2, CDK7, and CDK9) kinase activity was tested by the following method.
(§2) CDK and raw materials used here: CDK4/CycD3 (Carna, Cat. No 04-105, Lot. No 10CBS-0429 C, GST-CDK4(1-303end)/GST-CycD3(1-292end)); CDK6/cycD3 (Carna, Cat. No 04-107, Lot. No 09CBS-0622K, GST-CDK6(1-326(end))); CDK1/CyclinB (Millipore, Cat. 14-450k, Lot. No 25729U, His-CDK1+GST-cyclinB); CDK2/CycA2 (Carna, Cat. No 04-103, Lot. No 06CBS-3024, GST-CDK2 (1-298(end))); CDK7/CyclinH/MAT1 (Millipore, Cat. No 14-476M, Lot. No WAB0365-A, His-CDK7+GST-MAT1+cyclinH); CDK9/cyclinTl (Millipore, Cat. No 14-685K, Lot. No. 2476163-A, His-CDK9+cyclinTl); Peptide FAM-P8 (GL Biochem, Cat. No. 112396, Lot. No. P100804-XZ112396); ATP (Sigma, Cat. No. A7699-1G, CAS No. 987-65-5); DMSO (Sigma, Cat. No. D2650, Lot. No. 474382); EDTA (Sigma, Cat. No. E5134, CAS No. 60-00-4); 96-well plate (Corning, Cat. No. 3365, Lot. No. 22008026); 384-well plate (Corning, Cat. No. 3573, Lot. No. 12608008); Staurosporine (Sigma, Cat. No. S4400-1MG, Lot. No. 046K4080).
(§3) 1. Prepared 1× Kinase Buffer and Stop Buffer for the Test
2) 1× Kinase Base Buffer (CDK4).
(§4) 1) Diluted the compound to 50 times of the maximum concentration with 100% DMSO. For example, if the desired maximum inhibitory concentration is 10 μM, then a DMSO solution of 500 μM concentration is required.
(§5) 2) Transferred the compound to a 96-well plate and serially diluted the compound from a 100% DMSO solution at a ratio of 30 μm to 60 μm for a total of 10 concentrations gradients. 3) Transferred 100 μm of 100% DMSO to two empty wells as a no compound control and a no enzyme control.
(§6) 4) Prepared intermediate plate and transferred the compound of 10 μm concentration from the original plate to the intermediate plate, and then 90 μm of 1× kinase buffer was added and mixed by shaking for 10 min.
(§7) 4) Preparing intermediate plate and transferred the compound of […] concentration from the original plate to the intermediate plate, and then 90 μm of 1× kinase buffer was added and mixed by shaking for 10 min.
(§8) 1) Transferred 5 μm of each compound from the 96-well intermediate plate to a 384-well plate. For example, A1 of the 96-well plate was transferred to A1 and A2 of the 384-well plate. A2 of the 96-well plate was transferred to A3 and A4 of the 384-well plate, and so on.
(§9) 1) Prepared a 2.5× enzyme solution: added kinase into 1× kinase base buffer.
(§10) 2) Prepared a 2.5× peptide solution: added FAM-labeled peptide and ATP into the 1× kinase base buffer.
(§11) 3) Transferred the 2.5× enzyme solution to the assay plate: Assay plate already contained 5 μm of 10% DMSO and transferred 10 μm of 2.5× enzyme solution to each well.
(§12) 4) Incubated at room temperature for 10 min.
(§13) 5) Transferred the 2.5× peptide solution to the assay plate: added 10 μm of 2.5× peptide solution to each well of the 384-well assay plate.
(§14) 6) Kinase reaction and termination: incubated at 28° C. for a specified period and added 25 μm of stop buffer to stop the reaction.
(§15) 5. Caliper Reading: Collect Data on Caliper.
(§16) 1) Copied conversion data from Caliper program and Converted conversion values to inhibition values: Inhibition rate (%)=(1−OD value of the compound-OD value of the control well)/(OD value of the control empty-OD value of the control well)*100%.
(§17) 2) Fitted the data in XLFit excel add-in version 4.3.1 to give the corresponding IC50 values.

CDK1/CyclinB = CDK1/CyclinB (Homo sapiens, UniProt P06493); experiment: Determination of CDK activity (Caliper mobility shift, FAM-P8 peptide): CDK1; details: CDK1/CyclinB; read-out: CDK1 enzymatic inhibitory activity (IC50)
Description: as §1, §3
(§18) 1) 1× Kinase Base Buffer (CDK1, 2, and 6).
as §4, §5
(§19) 1) Transferred 5 μm of each compound from the 96-well intermediate plate to a 384-well plate. […] A2 of the 96-well plate was transferred to A3 and A4 of the 384-well plate, and so on.
as §9, §10, §11, §12, §13, §14, §15, §16, §17

CDK9/cyclinTl = CDK9/cyclinTl (Homo sapiens, UniProt P50750); experiment: Determination of CDK activity (Caliper mobility shift, FAM-P8 peptide): CDK9; details: CDK9/cyclinTl; read-out: CDK9 enzymatic inhibitory activity (IC50)
Description: as §1, §3
(§20) 3) 1× Kinase Base Buffer (CDK7 and 9).
as §4, §5, §19, §9, §10, §11, §12, §13, §14, §15, §16, §17

CDK7/CyclinH/MAT1 = CDK7/CyclinH/MAT1 (Homo sapiens, UniProt P50613); experiment: Determination of CDK activity (Caliper mobility shift, FAM-P8 peptide): CDK7; details: CDK7/CyclinH/MAT1; read-out: CDK7 enzymatic inhibitory activity (IC50)
Description: as §1, §2, §3, §20, §4, §5, §6, §7, §8, §9, §10, §11, §12, §13, §14, §15, §16, §17

CDK6/cycD3 = CDK6/cycD3 (Homo sapiens, UniProt Q00534); experiment: Determination of CDK activity (Caliper mobility shift, FAM-P8 peptide): CDK6; details: CDK6/cycD3; read-out: CDK6 enzymatic inhibitory activity (IC50)
Description: as §1, §2, §3, §18, §4, §5, §6, §7, §8, §9, §10, §11, §12, §13, §14, §15, §16, §17

CDK2/CycA2 = CDK2/CycA2 (Homo sapiens, UniProt P24941); experiment: Determination of CDK activity (Caliper mobility shift, FAM-P8 peptide): CDK2; details: CDK2/CycA2; read-out: CDK2 enzymatic inhibitory activity (IC50)
Description: as §1, §3, §18, §4, §5, §19, §9, §10, §11, §12, §13, §14, §15, §16, §17

Chain of CDK7/CyclinH/MAT1 (P50613 whole entry): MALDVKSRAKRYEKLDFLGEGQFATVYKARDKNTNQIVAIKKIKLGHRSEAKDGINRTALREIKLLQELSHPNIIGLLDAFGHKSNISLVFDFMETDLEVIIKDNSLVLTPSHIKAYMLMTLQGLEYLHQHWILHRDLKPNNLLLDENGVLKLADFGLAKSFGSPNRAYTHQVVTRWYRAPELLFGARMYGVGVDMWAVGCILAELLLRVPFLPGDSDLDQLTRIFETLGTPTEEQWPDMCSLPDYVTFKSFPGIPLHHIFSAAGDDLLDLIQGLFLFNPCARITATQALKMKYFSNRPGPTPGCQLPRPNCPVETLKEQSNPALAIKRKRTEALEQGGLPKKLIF
Chain of CDK7/CyclinH/MAT1 (P51946 whole entry partner): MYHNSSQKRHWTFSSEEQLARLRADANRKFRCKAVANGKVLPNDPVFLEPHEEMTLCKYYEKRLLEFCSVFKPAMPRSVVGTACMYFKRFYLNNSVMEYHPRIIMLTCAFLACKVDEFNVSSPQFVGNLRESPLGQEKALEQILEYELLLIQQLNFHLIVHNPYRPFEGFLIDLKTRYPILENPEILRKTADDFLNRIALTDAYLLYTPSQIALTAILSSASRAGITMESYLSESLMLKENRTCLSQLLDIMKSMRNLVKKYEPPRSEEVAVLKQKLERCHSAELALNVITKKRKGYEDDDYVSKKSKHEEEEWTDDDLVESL
Chain of CDK7/CyclinH/MAT1 (P51948 whole entry partner): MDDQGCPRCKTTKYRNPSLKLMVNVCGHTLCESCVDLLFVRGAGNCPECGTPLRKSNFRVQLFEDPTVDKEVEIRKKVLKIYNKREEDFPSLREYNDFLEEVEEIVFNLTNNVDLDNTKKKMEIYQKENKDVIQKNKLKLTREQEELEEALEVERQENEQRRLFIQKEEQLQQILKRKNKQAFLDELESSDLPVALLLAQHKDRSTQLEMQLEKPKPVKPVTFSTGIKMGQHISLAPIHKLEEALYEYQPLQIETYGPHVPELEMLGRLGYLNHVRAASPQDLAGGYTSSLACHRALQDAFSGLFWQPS
Chain of CDK4/CycD3 (P11802 whole entry): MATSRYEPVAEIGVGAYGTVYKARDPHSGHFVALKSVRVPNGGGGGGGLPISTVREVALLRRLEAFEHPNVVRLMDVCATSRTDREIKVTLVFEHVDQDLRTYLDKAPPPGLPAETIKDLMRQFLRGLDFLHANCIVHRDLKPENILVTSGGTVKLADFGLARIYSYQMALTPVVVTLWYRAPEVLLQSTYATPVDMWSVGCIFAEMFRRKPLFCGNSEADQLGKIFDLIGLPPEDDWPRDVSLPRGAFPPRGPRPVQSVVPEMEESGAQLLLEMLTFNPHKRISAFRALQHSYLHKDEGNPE
Chain of CDK4/CycD3 (P30281 whole entry partner): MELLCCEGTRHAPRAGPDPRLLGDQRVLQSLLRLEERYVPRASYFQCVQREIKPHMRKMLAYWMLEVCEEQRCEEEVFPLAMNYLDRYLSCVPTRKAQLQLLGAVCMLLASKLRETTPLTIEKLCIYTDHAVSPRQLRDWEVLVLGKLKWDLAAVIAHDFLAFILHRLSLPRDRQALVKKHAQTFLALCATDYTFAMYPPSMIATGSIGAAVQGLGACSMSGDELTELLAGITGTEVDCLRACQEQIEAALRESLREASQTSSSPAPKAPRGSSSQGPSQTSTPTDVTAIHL
Chain of CDK1/CyclinB (P06493 whole entry): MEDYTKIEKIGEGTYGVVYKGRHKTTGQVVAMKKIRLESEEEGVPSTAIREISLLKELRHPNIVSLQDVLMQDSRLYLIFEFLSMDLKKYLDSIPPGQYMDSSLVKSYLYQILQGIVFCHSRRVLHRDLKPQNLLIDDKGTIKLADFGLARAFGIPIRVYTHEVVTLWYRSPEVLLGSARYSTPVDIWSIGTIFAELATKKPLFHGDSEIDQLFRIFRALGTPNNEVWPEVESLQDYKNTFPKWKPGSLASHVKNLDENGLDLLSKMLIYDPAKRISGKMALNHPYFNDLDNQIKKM
Chain of CDK1/CyclinB (P14635 whole entry partner): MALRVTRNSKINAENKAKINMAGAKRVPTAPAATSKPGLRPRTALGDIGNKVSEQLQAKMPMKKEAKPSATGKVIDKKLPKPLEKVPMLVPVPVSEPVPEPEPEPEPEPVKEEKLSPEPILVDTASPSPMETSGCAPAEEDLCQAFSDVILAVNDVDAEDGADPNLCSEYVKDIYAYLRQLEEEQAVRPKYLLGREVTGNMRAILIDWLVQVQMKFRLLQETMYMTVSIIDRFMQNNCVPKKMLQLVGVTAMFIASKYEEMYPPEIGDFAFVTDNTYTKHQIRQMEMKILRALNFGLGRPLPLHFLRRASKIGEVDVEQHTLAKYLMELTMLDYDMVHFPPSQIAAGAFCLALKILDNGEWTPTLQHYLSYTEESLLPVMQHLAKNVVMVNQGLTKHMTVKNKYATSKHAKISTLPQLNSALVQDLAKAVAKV
Chain of CDK9/cyclinTl (P50750 whole entry): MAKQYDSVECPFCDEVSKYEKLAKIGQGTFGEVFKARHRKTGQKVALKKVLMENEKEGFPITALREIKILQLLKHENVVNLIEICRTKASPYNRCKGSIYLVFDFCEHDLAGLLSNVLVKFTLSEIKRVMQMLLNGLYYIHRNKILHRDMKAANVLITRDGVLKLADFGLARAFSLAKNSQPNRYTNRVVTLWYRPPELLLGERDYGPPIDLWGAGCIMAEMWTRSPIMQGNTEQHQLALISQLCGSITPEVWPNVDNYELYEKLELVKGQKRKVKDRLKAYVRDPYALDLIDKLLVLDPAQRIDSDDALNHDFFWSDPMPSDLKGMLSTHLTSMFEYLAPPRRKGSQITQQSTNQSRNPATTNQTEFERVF
Chain of CDK9/cyclinTl (O60563 whole entry partner): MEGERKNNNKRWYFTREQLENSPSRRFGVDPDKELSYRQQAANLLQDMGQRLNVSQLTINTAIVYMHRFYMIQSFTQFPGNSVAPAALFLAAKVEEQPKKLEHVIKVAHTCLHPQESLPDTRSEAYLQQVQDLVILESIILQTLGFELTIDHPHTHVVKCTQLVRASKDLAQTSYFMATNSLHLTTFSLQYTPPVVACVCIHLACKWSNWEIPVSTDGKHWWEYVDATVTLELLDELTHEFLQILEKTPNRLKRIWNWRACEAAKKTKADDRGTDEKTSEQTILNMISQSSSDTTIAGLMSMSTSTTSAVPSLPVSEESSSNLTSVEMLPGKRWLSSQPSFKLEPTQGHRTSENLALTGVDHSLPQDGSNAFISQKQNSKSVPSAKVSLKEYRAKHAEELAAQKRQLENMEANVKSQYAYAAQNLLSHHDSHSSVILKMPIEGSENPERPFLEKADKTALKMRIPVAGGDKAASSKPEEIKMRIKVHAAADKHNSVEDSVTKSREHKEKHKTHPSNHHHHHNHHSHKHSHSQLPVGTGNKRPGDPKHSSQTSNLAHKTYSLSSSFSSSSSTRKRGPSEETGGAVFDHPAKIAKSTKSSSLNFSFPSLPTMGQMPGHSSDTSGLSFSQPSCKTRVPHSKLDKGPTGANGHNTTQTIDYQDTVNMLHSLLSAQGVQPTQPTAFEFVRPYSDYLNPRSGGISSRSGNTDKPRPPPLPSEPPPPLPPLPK
Chain of CDK6/cycD3 (Q00534 whole entry): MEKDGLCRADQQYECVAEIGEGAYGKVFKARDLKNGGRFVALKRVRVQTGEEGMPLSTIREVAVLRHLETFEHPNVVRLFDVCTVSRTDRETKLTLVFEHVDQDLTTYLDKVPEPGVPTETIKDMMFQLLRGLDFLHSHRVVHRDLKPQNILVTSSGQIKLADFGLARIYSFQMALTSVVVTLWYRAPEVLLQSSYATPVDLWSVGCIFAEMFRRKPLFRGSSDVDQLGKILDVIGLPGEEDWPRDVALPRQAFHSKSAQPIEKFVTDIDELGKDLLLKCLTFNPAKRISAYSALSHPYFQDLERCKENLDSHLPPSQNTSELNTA
Chain of CDK6/cycD3 (P30281 whole entry partner): as the sequence (P30281 whole entry partner) above

Row | Structure (SMILES) | IC50 (CDK4/CycD3) [nM] | IC50 (CDK1/CyclinB) [µM] | IC50 (CDK9/cyclinTl) [nM] | IC50 (CDK7/CyclinH/MAT1) [nM] | IC50 (CDK6/cycD3) [nM] | IC50 (CDK2/CycA2) [nM]
1 | CCC(c1ccc(Nc2ncc(F)c(-c3cc(F)c4nc(C)n(C(C)C)c4c3)n2)nc1)N1CCN(CC)CC1 (racemic) [Example 1, N-(5-(1-(4-ethylpiperazin-1-yl)propyl)pyridin-2-yl)-5-fluoro-4-(4-fluoro-1-isopropyl-2-methyl-1H-benzo[d]imidazol-6-yl)pyrimidin-2-amine] | < 100 | 10 to 100 | 1000 to 10000 | 1000 to 10000 | 1000 to 10000 | 1000 to 10000
2 | CCN1CCC(C(C)c2ccc(Nc3ncc(F)c(-c4cc(F)c5nc(C)n(C(C)C)c5c4)n3)nc2)CC1 (racemic) [Example 16, N-(5-(1-(1-ethylpiperidin-4-yl)ethyl)pyridin-2-yl)-5-fluoro-4-(4-fluoro-1-isopropyl-2-methyl-1H-benzo[d]imidazol-6-yl)pyrimidin-2-amine] | < 100 | 0.1 to 0.5 | 100 to 500 | 1000 to 10000 | < 100 | < 100
3 | CCN1CCC(C(O)c2ccc(Nc3ncc(F)c(-c4cc(F)c5nc(C)n(C(C)C)c5c4)n3)nc2)CC1 (racemic) [Example 39, (1-Ethylpiperidin-4-yl)(6-((5-fluoro-4-(4-fluoro-1-isopropyl-2-methyl-1H-benzo[d]imidazol-6-yl)pyrimidin-2-yl)amino)pyridin-3-yl)methanol] | < 100 | < 0.1 | < 100 | 100 to 500 | < 100 | < 100
4 | CCC(c1ccc(Nc2ncc(F)c(-c3cc(F)c4nc(C)n(C(C)C)c4c3)n2)nc1)N1CCN(CC)CC1 (single isomer, unassigned) [Example 2, (R or S)—N-(5-(1-(4-ethylpiperazin-1-yl)propyl)pyridin-2-yl)-5-fluoro-4-(4-fluoro-1-isopropyl-2-methyl-1H-benzo[d]imidazol-6-yl) pyrimidin-2-amine] | < 100 | 10 to 100 | 1000 to 10000 | 1000 to 10000 | 100 to 500 | 1000 to 10000
5 | CCC(c1ccc(Nc2ncc(F)c(-c3cc(F)c4nc(C)n(C(C)C)c4c3)n2)nc1)N1CCN(CC)CC1 (single isomer, unassigned) [Example 3, (R or S)—N-(5-(1-(4-ethylpiperazin-1-yl)propyl)pyridin-2-yl)-5-fluoro-4-(4-fluoro-1-isopropyl-2-methyl-1H-benzo[d]imidazol-6-yl) pyrimidin-2-amine] | < 100 | 10 to 100 | 10000 to 100000 | 1000 to 10000 | 100 to 500 | 10000 to 100000
6 | CCN1CCC(C(C)c2ccc(Nc3ncc(F)c(-c4cc(F)c5nc(C)n(C(C)C)c5c4)n3)nc2)CC1 (single isomer, unassigned) [Example 18, (R or S)—N-(5-(1-(1-ethylpiperidin-4-yl)ethyl)pyridin-2-yl)-5-fluoro-4-(4-fluoro-1-isopropyl-2-methyl-1H-benzo[d]imidazol-6-yl) pyrimidin-2-amine] | < 100 | 0.5 to 1 | 500 to 1000 | 1000 to 10000 | 100 to 500 | 100 to 500
